From US8076338B2, “Kinase modulators and methods of use” (Exelixis, Inc., priority 2004, dated 2011) come the findings set out here.

One test deals with AktK (Homo sapiens, UniProt P31749). In words: Luciferase-coupled chemiluminescence kinase assay (ATP consumption). The format is biochemical. The following applies: read-out: AKT-1 IC50. In short, it runs like this:
(§1)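 Enzyme at 2.5-5 nM was preincubated 30 min at room temperature with compound in Tris pH 7.5, MgCl2, TX-100, DTT, then reacted with ATP for 3 h at ambient temperature. Remaining ATP was quantified by luciferase-luciferin chemiluminescence, with consumption kept at 25-60%; […].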

The target of a further test is p70S6K (Homo sapiens, UniProt P23443). The description is as above. The format is biochemical. The method in brief: as §1
Sequence of p70S6K (P23443 whole entry): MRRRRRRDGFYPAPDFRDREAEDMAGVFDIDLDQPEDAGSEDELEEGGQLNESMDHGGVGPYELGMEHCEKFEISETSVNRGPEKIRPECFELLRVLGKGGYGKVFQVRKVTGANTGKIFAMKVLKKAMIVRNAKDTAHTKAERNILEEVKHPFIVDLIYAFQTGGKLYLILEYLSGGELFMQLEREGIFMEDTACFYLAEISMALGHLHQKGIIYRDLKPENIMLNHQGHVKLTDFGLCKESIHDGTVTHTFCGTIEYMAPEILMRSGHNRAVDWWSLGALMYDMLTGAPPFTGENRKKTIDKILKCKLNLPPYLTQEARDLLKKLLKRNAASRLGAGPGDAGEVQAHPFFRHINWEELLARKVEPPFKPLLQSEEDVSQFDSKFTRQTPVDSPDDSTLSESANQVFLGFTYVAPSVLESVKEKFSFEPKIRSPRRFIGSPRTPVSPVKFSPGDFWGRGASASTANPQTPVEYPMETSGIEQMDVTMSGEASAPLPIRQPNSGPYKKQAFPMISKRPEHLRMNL

As usually defined, the IC50 is the concentration needed to halve the response being measured.

Sequence of AktK (P31749 whole entry): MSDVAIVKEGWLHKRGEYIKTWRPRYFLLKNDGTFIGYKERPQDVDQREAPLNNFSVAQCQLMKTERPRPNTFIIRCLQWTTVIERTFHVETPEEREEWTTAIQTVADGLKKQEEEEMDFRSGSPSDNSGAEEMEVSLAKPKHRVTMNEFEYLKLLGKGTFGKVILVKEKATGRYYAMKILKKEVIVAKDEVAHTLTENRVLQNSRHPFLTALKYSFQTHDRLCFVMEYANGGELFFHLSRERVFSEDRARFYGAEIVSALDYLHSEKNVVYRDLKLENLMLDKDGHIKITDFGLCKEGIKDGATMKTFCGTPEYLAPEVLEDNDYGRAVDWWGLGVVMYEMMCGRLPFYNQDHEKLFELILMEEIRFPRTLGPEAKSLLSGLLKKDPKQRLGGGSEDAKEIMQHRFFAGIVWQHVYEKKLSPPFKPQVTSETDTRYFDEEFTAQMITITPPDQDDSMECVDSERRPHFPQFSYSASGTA

As to `Clc1cccc(N2CCN(c3ncnc4[nH]cnc34)CC2)c1` [Entry 294, 6-[4-(3-chlorophenyl)piperazin-1-yl]-9H-purine], the values for the IC50 at AktK and against p70S6K were no less than 10 µM and 0.1 to 1 µM, respectively.

For the compound `c1ccc(N2CCN(c3ncnc4[nH]ccc34)CC2)cc1` [Entry 295, 4-(4-phenylpiperazin-1-yl)-7H-pyrrolo[2,3-d]pyrimidine], the half-maximal inhibitory concentration (IC50) is no less than 10 µM at AktK and 0.1 to 1 µM on p70S6K.

On to `Clc1cccc(N2CCN(c3ncnc4[nH]ccc34)CC2)c1` [Entry 296, 4-[4-(3-chlorophenyl)piperazin-1-yl]-7H-pyrrolo[2,3-d]pyrimidine], for which the figures for the concentration for half-maximal inhibition (IC50) at AktK and against p70S6K were 1 to 10 µM and 0.1 to 1 µM, respectively.

`c1ccc(N2CCN(c3ncnc4[nH]ncc34)CC2)cc1` [Entry 297, 4-(4-phenylpiperazin-1-yl)-1H-pyrazolo[3,4-d]pyrimidine]: the IC50 on AktK was no less than 10 µM; against p70S6K, 0.1 to 1 µM.

Turning to `Clc1cccc(N2CCN(c3ncnc4[nH]ncc34)CC2)c1` [Entry 298, 4-[4-(3-chlorophenyl)piperazin-1-yl]-1H-pyrazolo[3,4-d]pyrimidine], the results for the IC50 at AktK and against p70S6K were no less than 10 µM and 0.1 to 1 µM, respectively.

With `Clc1ccccc1N1CCN(c2ncnc3[nH]cnc23)CC1` [Entry 299, 6-[4-(2-chlorophenyl)piperazin-1-yl]-9H-purine], the IC50 is no less than 10 µM at AktK and 1 to 10 µM at p70S6K.

With `Fc1ccccc1N1CCN(c2ncnc3[nH]cnc23)CC1` [Entry 300, 6-[4-(2-fluorophenyl)piperazin-1-yl]-9H-purine], the results for the IC50 on AktK and at p70S6K were no less than 10 µM and 1 to 10 µM, respectively.

Turning to `Cc1ccccc1N1CCN(c2ncnc3[nH]ccc23)CC1` [Entry 301, 4-[4-(2-methylphenyl)piperazin-1-yl]-7H-pyrrolo[2,3-d]pyrimidine], the 50% inhibitory concentration (IC50) is no less than 10 µM on AktK and 0.1 to 1 µM on p70S6K.

Consider `COc1ccccc1N1CCN(c2ncnc3[nH]ccc23)CC1` [Entry 302, 4-{4-[2-(methyloxy)phenyl]piperazin-1-yl}-7H-pyrrolo[2,3-d]pyrimidine], for which the half-inhibitory concentration (IC50) at AktK was no less than 10 µM; on p70S6K, 0.1 to 1 µM.

With `COc1cccc(N2CCN(c3ncnc4[nH]ccc34)CC2)c1` [Entry 303, 4-{4-[3-(methyloxy)phenyl]piperazin-1-yl}-7H-pyrrolo[2,3-d]pyrimidine], the values for the half-maximal inhibitory concentration (IC50) at AktK and at p70S6K were no less than 10 µM and 0.1 to 1 µM, respectively.

For the compound `COc1ccc(N2CCN(c3ncnc4[nH]ccc34)CC2)cc1` [Entry 304, 4-{4-[4-(methyloxy)phenyl]piperazin-1-yl}-7H-pyrrolo[2,3-d]pyrimidine], the half-maximal inhibitory concentration (IC50) at AktK is no less than 10 µM; against p70S6K, 1 to 10 µM.

For `FC(F)(F)c1cccc(N2CCN(c3ncnc4[nH]ccc34)CC2)c1` [Entry 305, 4-{4-[3-(trifluoromethyl)phenyl]piperazin-1-yl}-7H-pyrrolo[2,3-d]pyrimidine], the IC50 at AktK is no less than 10 µM; against p70S6K, 0.1 to 1 µM.

In the case of `COc1ccc(N2CCN(c3ncnc4[nH]cnc34)CC2)cc1` [Entry 306, 6-{4-[4-(methyloxy)phenyl]piperazin-1-yl}-9H-purine], the 50% inhibitory concentration (IC50) on AktK is no less than 10 µM; on p70S6K, 1 to 10 µM.

As to `COc1ccccc1N1CCN(c2ncnc3[nH]cnc23)CC1` [Entry 307, 6-{4-[2-(methyloxy)phenyl]piperazin-1-yl}-9H-purine], the IC50 on AktK was no less than 10 µM; against p70S6K, 0.1 to 1 µM.

As to `Clc1ccc(N2CCN(c3ncnc4[nH]cnc34)CC2)cc1` [Entry 308, 6-[4-(4-chlorophenyl)piperazin-1-yl]-9H-purine], the IC50 is no less than 10 µM on AktK and 1 to 10 µM at p70S6K.

On to `Fc1ccc(N2CCN(c3ncnc4[nH]cnc34)CC2)cc1` [Entry 309, 6-[4-(4-fluorophenyl)piperazin-1-yl]-9H-purine], for which the results for the IC50 at AktK and against p70S6K were no less than 10 µM and 1 to 10 µM, respectively.

With `Clc1ccc(N2CCN(c3ncnc4[nH]ccc34)CC2)cc1` [Entry 310, 4-[4-(4-chlorophenyl)piperazin-1-yl]-7H-pyrrolo[2,3-d]pyrimidine], the IC50 is no less than 10 µM on AktK and 1 to 10 µM at p70S6K.

Consider `Clc1ccccc1N1CCN(c2ncnc3[nH]ccc23)CC1` [Entry 311, 4-[4-(2-chlorophenyl)piperazin-1-yl]-7H-pyrrolo[2,3-d]pyrimidine], for which the IC50 on AktK is no less than 10 µM; at p70S6K, 0.1 to 1 µM.

As for `Fc1ccc(N2CCN(c3ncnc4[nH]ccc34)CC2)cc1` [Entry 312, 4-[4-(4-fluorophenyl)piperazin-1-yl]-7H-pyrrolo[2,3-d]pyrimidine], the IC50 at AktK is no less than 10 µM; on p70S6K, 0.1 to 1 µM.

On to `Fc1ccccc1N1CCN(c2ncnc3[nH]ccc23)CC1` [Entry 313, 4-[4-(2-fluorophenyl)piperazin-1-yl]-7H-pyrrolo[2,3-d]pyrimidine], for which the values for the IC50 on AktK and against p70S6K were no less than 10 µM and 0.1 to 1 µM, respectively.

On to `FC(F)(F)c1cccc(N2CCN(c3ncnc4[nH]cnc34)CC2)c1` [Entry 314, 6-{4-[3-(trifluoromethyl)phenyl]piperazin-1-yl}-9H-purine], for which the concentration for half-maximal inhibition (IC50) is no less than 10 µM at AktK and 0.1 to 1 µM against p70S6K.

As to `Cc1ccccc1N1CCN(c2ncnc3[nH]cnc23)CC1` [Entry 315, 6-[4-(2-methylphenyl)piperazin-1-yl]-9H-purine], the IC50 at AktK is no less than 10 µM; against p70S6K, 0.1 to 1 µM.

`FC(F)(F)c1cccc(N2CCN(c3ncnc4[nH]ncc34)CC2)c1` [Entry 316, 4-{4-[3-(trifluoromethyl)phenyl]piperazin-1-yl}-1H-pyrazolo[3,4-d]pyrimidine]: the IC50 on AktK is no less than 10 µM; against p70S6K, less than 0.1 µM.

With `Cc1ccccc1N1CCN(c2ncnc3[nH]ncc23)CC1` [Entry 317, 4-[4-(2-methylphenyl)piperazin-1-yl]-1H-pyrazolo[3,4-d]pyrimidine], the 50% inhibitory concentration (IC50) on AktK is no less than 10 µM; against p70S6K it was 0.1 to 1 µM.

In the case of `Cc1n[nH]c2ncnc(N3CCN(c4cccc(Cl)c4)CC3)c12` [Entry 318, 4-[4-(3-chlorophenyl)piperazin-1-yl]-3-methyl-1H-pyrazolo[3,4-d]pyrimidine], the half-maximal inhibitory concentration (IC50) is no less than 10 µM at AktK and less than 0.1 µM at p70S6K.

Consider `Cc1ccc(Cl)cc1N1CCN(c2ncnc3[nH]ncc23)CC1` [Entry 320, 4-[4-(5-chloro-2-methylphenyl)piperazin-1-yl]-1H-pyrazolo[3,4-d]pyrimidine], for which the 50% inhibitory concentration (IC50) on AktK was 1 to 10 µM; against p70S6K, less than 0.1 µM.

Turning to `Cc1ccc(Cl)cc1N1CCN(c2ncnc3[nH]nc(C)c23)CC1` [Entry 321, 4-[4-(5-chloro-2-methylphenyl)piperazin-1-yl]-3-methyl-1H-pyrazolo[3,4-d]pyrimidine], the half-maximal inhibitory concentration (IC50) on AktK is 1 to 10 µM; on p70S6K, less than 0.1 µM.

Take `Cc1ccc(Cl)cc1N1CCN(c2nc(-c3ccccc3)nc3[nH]nc(C)c23)CC1` [Entry 322, 4-[4-(5-chloro-2-methylphenyl)piperazin-1-yl]-3-methyl-6-phenyl-1H-pyrazolo[3,4-d]pyrimidine]: the IC50 at AktK and at p70S6K was 1 to 10 µM throughout.

`CCc1n[nH]c2ncnc(N3CCN(c4cc(Cl)ccc4C)CC3)c12` [Entry 323, 4-[4-(5-chloro-2-methylphenyl)piperazin-1-yl]-3-ethyl-1H-pyrazolo[3,4-d]pyrimidine]: the IC50 is 1 to 10 µM at AktK and less than 0.1 µM on p70S6K.
